#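 Cells were grown in 96-well plates and exposed to each compound for 48 hours at five concentrations; endpoints were interpolated linearly between bracketing concentrations, or set to the highest concentration if not reached. GI50 is the concentration that inhibits growth by half. Definition used: TGI = concentration required for complete inhibition of growth.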
# Legend:
# Assay in all cases: NCI-60 cell line screen, 48 h
# SW-620 colon = system: SW-620 colon
# XF 498 CNS = system: XF 498 CNS
# HCT-15 colon = system: HCT-15 colon
# SN12C renal = system: SN12C renal
# NCI-H23 lung = system: NCI-H23 lung
# NCI-H522 lung = system: NCI-H522 lung
# SNB-19 CNS = system: SNB-19 CNS
# HCT-116 colon = system: HCT-116 colon
# HL-60(TB) leukemia = system: HL-60(TB) leukemia
# LOX IMVI melanoma = system: LOX IMVI melanoma
SMILES,TGI (SW-620 colon),TGI (XF 498 CNS),TGI (HCT-15 colon),TGI (SN12C renal),TGI (NCI-H23 lung),TGI (NCI-H522 lung),TGI (SNB-19 CNS),TGI (HCT-116 colon),TGI (HL-60(TB) leukemia),TGI (LOX IMVI melanoma),GI50 (HCT-116 colon),GI50 (SW-620 colon),GI50 (HCT-15 colon),GI50 (SN12C renal),GI50 (HL-60(TB) leukemia),GI50 (NCI-H23 lung),GI50 (NCI-H522 lung),GI50 (SNB-19 CNS),GI50 (LOX IMVI melanoma)
Nc1ccc(C(=O)N/C(=C\C=C\c2ccco2)c2nc3[nH]c(=S)[nH]c(=O)c3[nH]2)cc1,> 100 µM,> 100 µM,> 100 µM,> 100 µM,> 100 µM,> 100 µM,> 100 µM,–,–,–,–,–,–,–,–,–,–,–,–
Cc1cc2c(CC(=O)O)[nH]nc2c(C(=O)O)c1C,> 100 µM,> 100 µM,> 100 µM,> 100 µM,> 100 µM,–,> 100 µM,> 100 µM,> 100 µM,> 100 µM,–,–,–,–,–,–,–,–,–
Cc1cc2nc3c(=O)n(C)c(=O)nc-3n(-c3ccc(Cl)cc3)c2cc1C,20.5 µM,7.14 µM,21.9 µM,18.6 µM,26.2 µM,–,47 µM,33.6 µM,24.3 µM,–,–,–,–,–,–,–,–,–,–
Cc1cc2nc3c(C(OC4OC(CO)C(O)C(O)C4O)C(O)CO)nn(-c4ccccc4)c3nc2cc1C (centres undefined),–,> 100 µM,> 100 µM,> 100 µM,> 100 µM,> 100 µM,> 100 µM,> 100 µM,–,> 100 µM,–,–,–,–,–,–,–,–,–
Cc1nc2ccc(C(F)(F)F)cc2nc1Nc1ccc(Cl)c(Cl)c1,28.3 µM,22.2 µM,18.5 µM,24.3 µM,26.4 µM,–,27.1 µM,22.2 µM,24 µM,13.5 µM,–,–,–,–,–,–,–,–,–
CCCCNc1nc(NC(C)(C)C)nc(NC(C)(C)C)n1,> 100 µM,–,> 100 µM,> 100 µM,> 100 µM,> 100 µM,> 100 µM,29.6 µM,> 100 µM,23.6 µM,2.44 µM,7.2 µM,2.97 µM,3.1 µM,15.7 µM,5.89 µM,6.32 µM,17.6 µM,3.39 µM
CCOC(=O)[C@@H](C)C[C@H](Cc1ccccc1)NC(=O)c1csc([C@@H](C[C@H](C(C)C)N(C)C(=O)[C@@H](NC(=O)[C@H]2C[C@H](O[Si](C)(C)C(C)(C)C)CCN2C)C(C)C)OC(C)=O)n1,> 8.33 µM,–,> 5.02 µM,6.42 µM,> 8.33 µM,1.03 µM,> 8.33 µM,1.63 µM,0.896 µM,> 5.08 µM,0.246 µM,0.319 µM,0.427 µM,0.389 µM,0.249 µM,0.333 µM,0.128 µM,0.299 µM,0.304 µM
COc1cc2c(cc1C)NC(=O)/C2=C\c1cc(OC)c(OC)c(OC)c1,> 100 µM,–,> 100 µM,> 100 µM,> 100 µM,> 100 µM,> 100 µM,> 100 µM,45.7 µM,> 100 µM,33 µM,> 100 µM,> 100 µM,> 100 µM,13.8 µM,29.7 µM,> 100 µM,91.9 µM,> 100 µM
O=[N+]([O-])c1c(/C=N/Nc2ccccc2)oc(-c2ccc3c(c2)OCO3)c1-c1ccc2c(c1)OCO2,> 100 µM,> 100 µM,–,> 100 µM,> 100 µM,> 100 µM,> 100 µM,> 100 µM,33.5 µM,18.1 µM,–,–,–,–,–,–,–,–,–
O=C(Nc1ccccc1C(F)(F)F)c1cccc(NC2=C(Cl)C(=O)N(Cc3ccccc3)C2=O)c1,> 100 µM,–,> 24.5 µM,> 57.4 µM,62.5 µM,0.0672 µM,> 100 µM,> 55.1 µM,> 100 µM,36.9 µM,14.9 µM,22 µM,3.8 µM,7.49 µM,31.8 µM,19.2 µM,–,34 µM,5.87 µM
CCOc1ccc(/C=C/C(=O)c2ccccc2)cc1,21.1 µM,–,48 µM,37 µM,37.2 µM,34.9 µM,34 µM,27.4 µM,94.5 µM,26.5 µM,12.9 µM,7.73 µM,14.6 µM,18.3 µM,25 µM,16.9 µM,15.4 µM,16.8 µM,11.9 µM
CCCCC#COP(=O)(OCC)OCC,> 100 µM,–,> 100 µM,> 100 µM,> 100 µM,> 100 µM,> 100 µM,> 100 µM,> 100 µM,> 100 µM,–,–,–,–,–,–,–,–,–
COc1cc(OC2OC(C)C(O)C(O)C2O)cc2oc(-c3ccc(O)cc3)c(CC=C(C)C)c(=O)c12 (centres undefined),44 µM,–,52.1 µM,45.3 µM,47.4 µM,39.8 µM,39.2 µM,20.8 µM,16.2 µM,23 µM,8.15 µM,19.7 µM,16.8 µM,12.3 µM,3.5 µM,18.6 µM,13 µM,15.3 µM,10.4 µM
CCCC(=O)c1c(NOC2OC(COC(C)=O)C(OC(C)=O)C(OC(C)=O)C2OC(C)=O)nc(OC)n(C)c1=O (centres undefined),> 100 µM,> 100 µM,> 100 µM,> 100 µM,> 100 µM,> 100 µM,> 100 µM,> 100 µM,–,> 100 µM,–,–,–,–,–,–,–,–,–
N#CC(C#N)=C(N)/C(C#N)=C\c1ccnc2ccccc12,17.2 µM,69.7 µM,–,60 µM,40.5 µM,89.1 µM,> 100 µM,12.4 µM,4.69 µM,–,–,–,–,–,–,–,–,–,–
c1ccc2c(c1)[I+]c1ccccc1-2,> 50 µM,–,> 50 µM,> 50 µM,> 50 µM,> 50 µM,> 50 µM,> 50 µM,> 50 µM,> 50 µM,38.4 µM,> 50 µM,> 50 µM,> 50 µM,> 50 µM,22.9 µM,> 50 µM,> 50 µM,> 50 µM
O=[N+]([O-])c1ccc2[nH]cc(-c3c4ccsc4cc4[nH]c5ccc([N+](=O)[O-])cc5c34)c2c1,8.37 µM,–,9.68 µM,11.4 µM,5.62 µM,3.42 µM,9.13 µM,5.37 µM,19.4 µM,5.48 µM,0.865 µM,1.07 µM,0.735 µM,1.43 µM,1.1 µM,1.21 µM,0.423 µM,1.32 µM,0.834 µM

# Source: PubChem BioAssay (NCI)
